Data reported in ChEMBL document CHEMBL1287764, “3-O-phosphate ester conjugates of 17-β-O-{1-[2-carboxy-(2-hydroxy-4-methoxy-3-carboxamido)anilido]ethyl}1,3,5(10)-estratriene as novel bone-targeting agents” (Bioorg Med Chem Lett, 2010).

System: Hydroxyapatite
Test: Binding affinity to hydroxyapatite at 10 nM by UV-spectroscopy relative to tetracycline

Structure (SMILES)	RBA
CCCCOP(=O)(OCCCC)Oc1ccc2c(c1)CC[C@@H]1[C@@H]2CC[C@]2(C)[C@@H](OCCC(=O)Nc3ccc(OC)c(C(N)=O)c3O)CC[C@@H]12	100%
C[C@]12CC[C@@H]3c4ccc(O)cc4CC[C@H]3[C@@H]1CC[C@@H]2O	0%
CCCCCCCCCCCCOP(=O)(OCCCCCCCCCCCC)Oc1ccc2c(c1)CC[C@@H]1[C@@H]2CC[C@]2(C)[C@@H](OCCC(=O)Nc3ccc(OC)c(C(N)=O)c3O)CC[C@@H]12	160%
CCCCC(CC)COP(=O)(OCC(CC)CCCC)Oc1ccc2c(c1)CC[C@@H]1[C@@H]2CC[C@]2(C)[C@@H](OCCC(=O)Nc3ccc(OC)c(C(N)=O)c3O)CC[C@@H]12 (stereo partly drawn)	180%
COc1ccc(NC(=O)CCO[C@H]2CC[C@H]3[C@@H]4CCc5cc(OP(=O)(OCc6ccccc6)OCc6ccccc6)ccc5[C@H]4CC[C@]23C)c(O)c1C(N)=O	190%
CN(C)[C@@H]1C(O)=C(C(N)=O)C(=O)[C@@]2(O)C(O)=C3C(=O)c4c(O)cccc4[C@@](C)(O)[C@H]3C[C@@H]12	100%
COc1ccc(NC(=O)CCO[C@H]2CC[C@H]3[C@@H]4CCc5cc(OP(=O)(OC(C)C)OC(C)C)ccc5[C@H]4CC[C@]23C)c(O)c1C(N)=O	200%
COc1ccc(NC(=O)CCO[C@H]2CC[C@H]3[C@@H]4CCc5cc(OP(=O)(OCC(C)C)OCC(C)C)ccc5[C@H]4CC[C@]23C)c(O)c1C(N)=O	180%
